Test systems include A549; SW-620; UO-31; HCC 2998; Hs-578T; MCF7; SN12C; SK-MEL-5; SK-MEL-28; MDA-MB-435; MOLT-4; HCT-15; COLO 205; SF-268; RXF 393; MDA-MB-231; OVCAR-8; HL-60; LOX IMVI.
Common to all, as to test: growth of human tumour cells (NCI), 48 h

The structures appear in SMILES notation.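 Values below derive from 48-hour exposures of cells grown in 96-well plates, with endpoints linearly interpolated between the two concentrations bracketing the appropriate inhibition level. GI50 is the concentration that inhibits growth by half.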 The source made the active and inactive calls. Cut-off read from the data, not from the text of the source: active = GI50 up to about 1.1 µM and inactive = higher.

As to `COc1ccc2nc3cc(Cl)ccc3c(NCCCN(Cc3cc(OC)c(OC)c(OC)c3)Cc3cc(OC)c(OC)c(OC)c3)c2c1`, the GI50 with A549 is 14.6 µM (inactive); in the test with SW-620, 1.14 µM (inactive); with UO-31, 10.6 µM (inactive); with HCC 2998 it was 14.3 µM (inactive); in the test with Hs-578T it was 8.55 µM (inactive); with MCF7, 13.6 µM (inactive). Moreover, the GI50 with SN12C was 16.8 µM (inactive); with SK-MEL-5, 1.29 µM (inactive); with SK-MEL-28 it was 16.4 µM (inactive); in the test on MDA-MB-435, > 10 µM (inactive); with MOLT-4, 1.34 µM (inactive); in the test with HCT-15, greater than 10 µM. Further, the GI50 in the test on COLO 205 is 4.3 µM (inactive); in the test on SF-268 it was 13.5 µM (inactive); in the test with RXF 393 it was 3.38 µM (inactive); with MDA-MB-231, < 0.01 µM (active); with OVCAR-8, 12.1 µM (inactive).

Take `O=C(CNc1ccccc1[N+](=O)[O-])Nn1cnc2ccc(S(=O)(=O)Nc3ccccc3[N+](=O)[O-])cc2c1=O`: the GI50 in the test on A549 is > 100 µM (inactive); in the test with SW-620, > 100 µM (inactive); in the test on UO-31, 73.8 µM (inactive); with HCC 2998, > 100 µM (inactive); in the test with Hs-578T, 22.1 µM (inactive); in the test with MCF7, > 100 µM (inactive). In addition, the GI50 in the test with SN12C, in the test on HL-60, in the test with SK-MEL-28, in the test with LOX IMVI, in the test on MDA-MB-435 and in the test with MOLT-4 was > 100 µM (inactive) throughout. The GI50 in the test on HCT-15 was greater than 100 µM; in the test with COLO 205, > 100 µM (inactive); with SF-268 it was > 100 µM (inactive); with MDA-MB-231 it was > 100 µM (inactive); in the test with OVCAR-8 it was > 100 µM (inactive).

As to `NC(=O)NNc1nc(-c2ccccc2)cs1`, the GI50 in the test on A549, in the test with SW-620, with UO-31, in the test on HCC 2998, in the test with Hs-578T and with MCF7 was > 100 µM (inactive) each time. Further, the GI50 in the test on SN12C, in the test on SK-MEL-5, in the test with SK-MEL-28, with LOX IMVI, in the test with MDA-MB-435 and with MOLT-4 was > 100 µM (inactive) in each case. For the same molecule, the GI50 was greater than 100 µM in the test on HCT-15; > 100 µM (inactive) with COLO 205; > 100 µM (inactive) in the test on SF-268; > 100 µM (inactive) in the test on RXF 393; > 100 µM (inactive) in the test on MDA-MB-231; > 100 µM (inactive) in the test with OVCAR-8.

Turning to `Cc1cc(S(=O)(=O)[N-]/C(=N/S(=O)(=O)c2ccc(Cl)cc2)[n+]2ccc(N(C)C)cc2)c(SCC(=O)O)cc1Cl`, the GI50 is > 100 µM (inactive) in the test on A549; 64.1 µM (inactive) in the test on SW-620; > 100 µM (inactive) in the test on UO-31; > 100 µM (inactive) in the test on Hs-578T; 43.8 µM (inactive) with MCF7; > 100 µM (inactive) with SN12C. The GI50 in the test on HL-60 was > 100 µM (inactive); in the test with LOX IMVI it was > 100 µM (inactive); in the test on MDA-MB-435, > 100 µM (inactive); in the test on MOLT-4, 34.7 µM (inactive); in the test with HCT-15 it was greater than 100 µM; in the test with COLO 205, > 100 µM (inactive). The GI50 was > 100 µM (inactive) in the test with SF-268, 59.4 µM (inactive) in the test on RXF 393, 83.4 µM (inactive) with MDA-MB-231 and > 100 µM (inactive) with OVCAR-8.

`CC(=O)OCC1OC(c2nc3ccccc3s2)=CC(OC(C)=O)C1OC(C)=O` (stereo not drawn): the GI50 in the test with A549, in the test with SW-620, in the test on UO-31, in the test with Hs-578T, in the test with MCF7 and with SN12C was > 100 µM (inactive) each time. Moreover, the GI50 in the test on HL-60 is 22.3 µM (inactive); in the test with SK-MEL-5, > 100 µM (inactive); in the test on SK-MEL-28, > 100 µM (inactive); in the test with LOX IMVI, > 100 µM (inactive); in the test on MDA-MB-435, > 100 µM (inactive); with MOLT-4, > 10 µM (inactive). In addition, the GI50 was > 100 µM (inactive) in the test with COLO 205; 43.6 µM (inactive) in the test with SF-268; 78.3 µM (inactive) with RXF 393; > 100 µM (inactive) with MDA-MB-231; > 100 µM (inactive) in the test with OVCAR-8.

As to `Clc1ccccc1/C=C/c1nsc(/C=C/c2ccccc2Cl)n1`, the GI50 with A549 is 73.8 µM (inactive); with UO-31, > 100 µM (inactive); with Hs-578T, > 100 µM (inactive); with MCF7, 32 µM (inactive); in the test with SN12C it was 23.6 µM (inactive); in the test on HL-60 it was 21.6 µM (inactive). The GI50 with SK-MEL-5 was 36.1 µM (inactive); with SK-MEL-28 it was > 100 µM (inactive); in the test with LOX IMVI, 37.2 µM (inactive); with MDA-MB-435, 42.6 µM (inactive); in the test with MOLT-4 it was 33.5 µM (inactive); with HCT-15 it was 38 µM. The GI50 with COLO 205 was 47.4 µM (inactive); in the test on SF-268, 55.5 µM (inactive); in the test with RXF 393, > 100 µM (inactive); with MDA-MB-231, 60 µM (inactive); in the test on OVCAR-8, 94 µM (inactive).

Take `Cc1cc(C)n(CN(Cn2nc(C)cc2C)c2ccccc2)n1`: the GI50 is 26.8 µM (inactive) with A549; 18.2 µM (inactive) with SW-620; 21.7 µM (inactive) with UO-31; 45 µM (inactive) in the test on Hs-578T; 23.1 µM (inactive) in the test with MCF7; 35.1 µM (inactive) with SN12C. In addition, the GI50 with HL-60 was 2.99 µM (inactive); in the test on SK-MEL-5 it was 20.4 µM (inactive); with SK-MEL-28, 19.6 µM (inactive); in the test with LOX IMVI it was 1.5 µM (inactive); in the test with MDA-MB-435, 13.7 µM (inactive); in the test on MOLT-4 it was 10.5 µM (inactive). Besides, the GI50 in the test on HCT-15 is 19.6 µM; in the test on COLO 205, 14.3 µM (inactive); in the test with SF-268, 20.4 µM (inactive); with RXF 393 it was 19.3 µM (inactive); in the test on MDA-MB-231, 37.6 µM (inactive); with OVCAR-8, 20.9 µM (inactive).

On to `COc1ccc(N)c(C(=O)CCNC(C)=O)c1` [KINURENAMINE], for which the GI50 in the test on A549, in the test on SW-620, in the test on UO-31, in the test with Hs-578T, in the test on MCF7 and with SN12C was > 100 µM (inactive) throughout. Besides, the GI50 in the test on HL-60 is > 100 µM (inactive); with SK-MEL-5, > 100 µM (inactive); with LOX IMVI, > 100 µM (inactive); in the test on MDA-MB-435 it was > 100 µM (inactive); in the test on MOLT-4, > 100 µM (inactive); with HCT-15, greater than 100 µM. Further, the GI50 with COLO 205, with SF-268, in the test on RXF 393, in the test with MDA-MB-231 and with OVCAR-8 was > 100 µM (inactive) in each case.

Take `CC(C)(C)c1cc(C2NCCO2)cc(C(C)(C)C)c1O` (stereo not drawn): the GI50 with SW-620 was > 100 µM (inactive); in the test with Hs-578T, 79.3 µM (inactive); in the test on MCF7, 76.7 µM (inactive); in the test with SN12C, 89.7 µM (inactive); in the test with HL-60, > 100 µM (inactive); with SK-MEL-5 it was > 100 µM (inactive). The GI50 in the test with SK-MEL-28 is > 100 µM (inactive); with LOX IMVI, > 100 µM (inactive); in the test on MDA-MB-435, > 100 µM (inactive); in the test on MOLT-4, > 100 µM (inactive); in the test with HCT-15 it was 57 µM; with COLO 205 it was > 100 µM (inactive). For the same molecule, the GI50 was 32.4 µM (inactive) in the test on SF-268, 14.7 µM (inactive) with RXF 393, 20.6 µM (inactive) with MDA-MB-231 and 77.3 µM (inactive) in the test on OVCAR-8.

Take `CC(C)(CC#N)c1cc(CC(C)(C)c2cc(CC(C)(C)c3cc(C(C)(C)C4(C)OCCO4)no3)no2)no1`: the GI50 with A549 is > 100 µM (inactive); with SW-620 it was > 100 µM (inactive); with UO-31, > 100 µM (inactive); with HCC 2998 it was > 100 µM (inactive); in the test with Hs-578T it was 22.8 µM (inactive); in the test on MCF7 it was 19.1 µM (inactive). The GI50 was 25.8 µM (inactive) with SN12C; 75.7 µM (inactive) in the test on SK-MEL-5; > 100 µM (inactive) in the test with SK-MEL-28; > 100 µM (inactive) in the test on MDA-MB-435; > 100 µM (inactive) in the test with MOLT-4; 94.2 µM in the test with HCT-15. Further, the GI50 was > 100 µM (inactive) with COLO 205; 39.4 µM (inactive) in the test with SF-268; 7.89 µM (inactive) in the test with RXF 393; 22.4 µM (inactive) with MDA-MB-231; 51.9 µM (inactive) in the test on OVCAR-8.

Regarding `S=c1[nH]c(Cl)cc2nc(Cl)cn12`, the GI50 in the test on A549 was 20.2 µM (inactive); in the test on SW-620, 6.68 µM (inactive); with UO-31 it was 4.7 µM (inactive); in the test on HCC 2998, 8.79 µM (inactive); with Hs-578T, 2.3 µM (inactive); in the test on MCF7, 3.13 µM (inactive). Besides, the GI50 with SN12C was 7.29 µM (inactive); in the test with SK-MEL-5 it was 2.95 µM (inactive); in the test on SK-MEL-28 it was 8.2 µM (inactive); with LOX IMVI, 7.85 µM (inactive); with MDA-MB-435 it was 2.09 µM (inactive); in the test with HCT-15, 4.68 µM. The GI50 in the test with COLO 205 was 2.83 µM (inactive); in the test with SF-268, 5.11 µM (inactive); with RXF 393, 2.84 µM (inactive); in the test on MDA-MB-231, 5.43 µM (inactive); in the test with OVCAR-8 it was 4.74 µM (inactive).

As for `COc1cc2nc(-c3cccs3)nc(N3C(c4cc(OC)c(OC)c(OC)c4)=NNC(=O)c4ccccc43)c2cc1OC`, the GI50 was 31.1 µM (inactive) in the test with A549; 27.4 µM (inactive) with UO-31; 38.9 µM (inactive) in the test with Hs-578T; 46.3 µM (inactive) in the test on MCF7; 21.2 µM (inactive) in the test with SN12C; 54.7 µM (inactive) with HL-60. In addition, the GI50 is 34.9 µM (inactive) in the test with SK-MEL-5; 21.9 µM (inactive) with SK-MEL-28; 15.8 µM (inactive) in the test on LOX IMVI; 13.9 µM (inactive) in the test on MDA-MB-435; > 100 µM (inactive) with MOLT-4; 13.5 µM in the test on HCT-15. The GI50 in the test with COLO 205 was > 100 µM (inactive); in the test on SF-268 it was 12 µM (inactive); in the test with MDA-MB-231, 16.7 µM (inactive); in the test with OVCAR-8 it was 3.4 µM (inactive).
